From ChEMBL document CHEMBL4130525, “gem-Dinitroalkyl Benzenes: A Novel Class of IOP-Lowering Agents for the Treatment of Ocular Hypertension” (ACS Med Chem Lett, 2017)
Where “and” joins values, the source holds several entries; their conditions need not be identical. Identical values can stand only once. Calls of active or inactive are those of the source. No cut-off for these calls is given here.

Columns and labels:
Thoracic aorta [1] = assay: Vasodilatory activity in denuded Wistar rat thoracic aorta assessed as relaxation of L-phenylephrine-induced contractions of aortic strips; format: functional, tissue-based
Oryctolagus cuniculus [2] = assay: Antiglaucoma activity in hypertonic saline-induced New Zealand albino rabbit transient ocular hypertensive model assessed as IOP lowering efficacy at 1% dose administered topically immediately after hypertonic saline injection measured at 60 mins post dose; format: functional
Oryctolagus cuniculus [3] = assay: Antiglaucoma activity in hypertonic saline-induced New Zealand albino rabbit transient ocular hypertensive model assessed as IOP lowering efficacy at 1% dose administered topically immediately after hypertonic saline injection measured at 120 mins post dose; format: functional
Oryctolagus cuniculus [4] = assay: Antiglaucoma activity in hypertonic saline-induced New Zealand albino rabbit transient ocular hypertensive model assessed as IOP lowering efficacy at 1% dose administered topically immediately after hypertonic saline injection measured at 240 mins post dose; format: functional
[5] = Lipophilicity, log P of the compound by shake flask method; format: physicochemical; conditions: octanol/water
[6] = Induction of NO release assessed as nitrite formation at 0.1 mM in phosphate buffer saline at pH 7.4 in absence of L-cysteine measured after 1 hr by Griess assay; format: functional
[7] = Induction of NO release assessed as nitrite formation at 0.1 mM in phosphate buffer saline at pH 7.4 in absence of L-cysteine measured after 6 hrs by Griess assay; format: functional
[8] = Induction of NO release assessed as nitrite formation at 0.1 mM in phosphate buffer saline at pH 7.4 in presence of 5 mM of L-cysteine measured after 1 hr by Griess assay; format: functional
[9] = Induction of NO release assessed as nitrite formation at 0.1 mM in phosphate buffer saline at pH 7.4 in presence of 5 mM of L-cysteine measured after 6 hrs by Griess assay; format: functional
[10] = Induction of NO release assessed as nitrite formation at 0.1 mM in phosphate buffer saline at pH 7.4 in presence of 5 mM of L-cysteine by Griess assay; format: functional; conditions: TDE = time-dependent effect
[11] = n-Octanol-water distribution coefficient, log D of the compound at pH 7.4 after 20 mins by UV-spectrphotometric based shake-flask method; format: physicochemical
[12] = Ionization constant, pKa of the compound in KCl at pH 1.8 by potentiometric titration; format: physicochemical
[13] = Induction of NO release assessed as nitrite formation at 0.1 mM in HCl at pH 1.5 in absence of L-cysteine measured after 1 hr by Griess assay; format: functional
[14] = Induction of NO release assessed as nitrite formation at 0.1 mM in HCl at pH 1.5 in absence of L-cysteine measured after 6 hrs by Griess assay; format: functional
[15] = Drug metabolism assessed as anisic acid formation after 24 hrs by HPLC analysis; format: physicochemical
[16] = Induction of NO release assessed as nitrite formation at 0.1 mM in phosphate buffer saline at pH 1.5 to 7.4 measured up to 24 hrs by Griess assay; format: functional
[17] = Induction of NO release assessed as nitrite formation at 0.1 mM in phosphate buffer saline at pH 7.4 in presence of 5 mM of L-cysteine measured up to 24 hrs by Griess assay; format: functional
[18] = Induction of NO release assessed as nitrite formation at 0.1 mM in phosphate buffer saline at pH 7.4 in absence of L-cysteine measured up to 24 hrs by Griess assay; format: functional
Thoracic aorta [19] = assay: Vasodilatory activity in denuded Wistar rat thoracic aorta assessed as relaxation of L-phenylephrine-induced contractions of aortic strips in presence of 1 uM of soluble guanylate cyclase inhibitor ODQ; format: functional; parameters: scale not given: the % may be the effect or the level left
Oryctolagus cuniculus [20] = assay: Antiglaucoma activity in carbomer-induced New Zealand albino rabbit transient ocular hypertensive model assessed as reduction in IOP at 1% dose administered topically everyday for 5 days measured 1 hr post drug instillation; format: functional, organism-based
Oryctolagus cuniculus [21] = assay: Antiglaucoma activity in carbomer-induced New Zealand albino rabbit transient ocular hypertensive model assessed as reduction in IOP at 1% dose administered topically measured after 24 hrs; format: functional, organism-based
[22] = Rattus norvegicus, Thoracic aorta

Compound	Activity (Oryctolagus cuniculus [2]) [mmHg]	Activity (Oryctolagus cuniculus [3]) [mmHg]	Activity (Oryctolagus cuniculus [4])	logP [5]	Activity [6]	Activity [7]	Activity [8] [%]	Activity [9] [%]	Activity [10]	EC50 (Thoracic aorta [1])	Activity (Thoracic aorta [19]) [%]	further results
CCOC(=O)[N-]c1c[n+](N2CCOCC2)no1 [MOLSIDOMINE]	-4.6	0.12	-0.34 mmHg									EC50 (Thoracic aorta [1]; [22]): 18 µM; Drug metabolism (Oryctolagus cuniculus [4]): Metabolite detected
CC(c1ccccc1)([N+](=O)[O-])[N+](=O)[O-]	-5.6	-10.5	0.3 mmHg	2.34	inactive	inactive	< 0.5	2	Tde	50 µM and 24 µM		
COc1ccc(C([N+](=O)[O-])[N+](=O)[O-])cc1	-10.7	-1.1	Active									logD at 20 min [11]: -1.21; pKa [12]: 3.9; Activity [13]: 1.3%; Activity [14]: 4%; EC50 (Thoracic aorta [1]; [22]): 64 µM; Drug metabolism [15]: Dose-dependent effect; Activity [16]: Dose-dependent effect
COc1ccc(C(C)([N+](=O)[O-])[N+](=O)[O-])cc1	-7.3	-0.11	Active	2.2	3%	24.9%	3.5	25.4			40	Activity [17]: Active; Activity [18]: Active; Activity [16]: Dose-dependent effect
COCCOCCOCCOc1ccc(C(C)([N+](=O)[O-])[N+](=O)[O-])cc1	-12.7	0.11	Active	1.63	2.6%	12.8%	2.7	13.8		55 µM and 264 µM		Activity [17]: Active; Activity [18]: Active
CC(c1ccc(C(F)(F)F)cc1)([N+](=O)[O-])[N+](=O)[O-]	-6.9	-10.4	-0.34 mmHg	2.92	inactive	inactive	0.8	4.6	Tde		19	
Cc1ccc(C(C)([N+](=O)[O-])[N+](=O)[O-])cc1	-4.9	-6.7	-0.04 mmHg	2.69	inactive	inactive	< 0.5	1.3	Tde	4 µM and 20 µM	24	Activity (Oryctolagus cuniculus [20]): Active; Activity (Oryctolagus cuniculus [21]): Dose-dependent effect
